In patent US9718840B2, “Condensed 5-oxazolidinone derivative” (SUMITOMO DAINIPPON PHARMA CO., LTD., priority 2014, dated 2017):
One block for each compound: values may come before it.

Columns and labels:
Human FXIa = Human FXIa (Homo sapiens, UniProt P03951); test: In vitro activated factor XI (FXIa) inhibition test; format: biochemical
[1] = tested on: Rabbit venous thrombus models; test: In vivo antithrombotic effect evaluation test using rabbit (arteriovenous shunt); conditions: prompt i.v. + continuous i.v.
Protocol: (§1) Rabbit venous thrombus models were prepared by a modification of the report of Wong et al. (Wong P C. et al., J. Pharmacol. Exp. Ther. 292: 351-357 (2000)). Male rabbits (JW, 2 to 4 kg) were anesthetized by the inhalation of isoflurane (ISOFLU®, manufactured by DS Pharma Animal Health Co., Ltd.) (introduced anesthesia: 4%, continuous anesthesia: 1.5 to 2.5%). A tracheostomy tube was inserted to each rabbit, which was then ventilated using a respirator. For the intravenous administration of a test drug and blood collection, catheters were inserted to the right femoral vein and the right femoral artery, respectively. An arteriovenous shunt filled with saline was inserted to the carotid artery and the jugular vein. The arteriovenous shunt was prepared by connecting Atom extension tubes (4Fr) having lengths of 15 cm and 13 cm to the artery side and the vein side, respectively, of a polyethylene tube (length: 60 cm, outside diameter: 11.1 mm, inside diameter: 7.9 mm). Also, 4-0 silk thread having a length of 5 cm was indwelled in the arteriovenous shunt. Blood was sent for 30 minutes from the carotid artery to the jugular vein via the arteriovenous shunt. The shunt was removed, and the weight of the silk thread covered with thrombus was measured. The weight of the silk thread measured before the experiment was subtracted from the measured weight, and the obtained value was used as a wet thrombus weight. One hour before the open of the arteriovenous shunt, the test drug or a vehicle was promptly intravenously administered (0.67 mL/kg) and then continuously intravenously administered (1 mL/kg/hr). The continuous injection was continued throughout the experiment. Further, an existing anticoagulant dabigatran (antithrombin drug) and rivaroxaban (FXa inhibitor) were tested as control drugs.
In order to measure aPTT of blood samples as an index for the intrinsic coagulation pathway, blood was collected before administration and immediately before cessation of blood flow, and plasma was prepared using 3.2% sodium citrate. After incubation at 37° C. for 6 minutes, an STA reagent Cephascreen (for aPTT assay; manufactured by Roche Diagnostics K.K.) was added in an amount equal thereto, and the mixture was further incubated for 4 minutes. STA calcium chloride (manufactured by Roche Diagnostics K.K.) was added in an amount equal thereto, and the time required for coagulation was measured.
In order to measure prothrombin time (PT) of blood samples as an index for the extrinsic coagulation pathway, blood was collected before administration and immediately before cessation of blood flow, and plasma was prepared using 3.2% sodium citrate. After incubation at 37° C. for 10 minutes, Neoplastin Plus (for PT assay; manufactured by Roche Diagnostics K.K.) was added in a double amount, and the time required for coagulation was measured.

[2] = tested on: Rabbit nail bleeding models; test: Effect of combined use with antiplatelet drug using rabbit nail bleeding model; format: in vivo; conditions: alone; for Bleeding time: rabbit, maximum 60 minutes; for Bleeding time (fold-increase): ratio to vehicle group average
Protocol: Rabbit nail bleeding models were prepared by a modification of the report of Wong et al. (Wong P C. et al., J. Thromb. Haemost. 7: 1313-1320 (2009)). Male rabbits (JW, 1.5 to 3.5 kg) were anesthetized by the inhalation of isoflurane (ISOFLU®, manufactured by DS Pharma Animal Health Co., Ltd.) (introduced anesthesia: 4%, continuous anesthesia: 2 to 3%). For the intravenous administration of a test drug or a vehicle, an indwelling needle was inserted to the auricular vein, and the test drug or the vehicle was promptly intravenously administered (0.67 mL/kg) and then continuously intravenously administered (1 mL/kg/hr). One hour after the start of administration, three posterior toenails were cut and dipped in saline heated to approximately 37° C., and the bleeding time was measured. The bleeding time was defined as a time from the cutting to the arrest of bleeding, and an average value from the three nails was used. The measurement time was 60 minutes at the maximum. If bleeding for 60 minutes or longer was confirmed, the bleeding time was regarded as 60 minutes.

[3] = tested on: Rabbit nail bleeding models; test: Bleeding time evaluation test using rabbit nail bleeding model; format: in vivo; conditions: for Bleeding time: Experiment 1 (maximum 30 minutes), rabbit; for Bleeding time (fold-increase): Experiment 1, ratio to vehicle group average
Protocol: Rabbit nail bleeding models were prepared by a modification of the report of Wong et al. (Wong P C. et al., J. Thromb. Haemost. 7: 1313-1320 (2009)). Male rabbits (JW, 1.5 to 3.5 kg) were anesthetized by the inhalation of isoflurane (ISOFLU®, manufactured by DS Pharma Animal Health Co., Ltd.) (introduced anesthesia: 4%, continuous anesthesia: 2 to 3%).
For the intravenous administration of a test drug or a vehicle, an indwelling needle was inserted to the auricular vein, and the test drug or the vehicle was promptly intravenously administered (0.67 mL/kg) and then continuously intravenously administered (1 mL/kg/hr). One hour after the start of administration, three posterior toenails were cut and dipped in saline heated to approximately 37° C., and the bleeding time was measured. The bleeding time was defined as a time from the cutting to the arrest of bleeding, and an average value from the three nails was used. The measurement time was 30 minutes at the maximum for experiment 1 and 60 minutes at the maximum for experiment 2. In each experiment, if bleeding for 30 minutes or 60 minutes or longer was confirmed, the bleeding time was regarded as 30 minutes or 60 minutes.

[4] = tested on: Rabbit venous thrombus models; test: Effect of combined use with antiplatelet drug using rabbit AVST model; format: in vivo; conditions: alone
Protocol: as §1, with “Male rabbits (JW, 2 to 4 kg) were anesthetized by the inhalation of isoflurane (ISOFLU®, manufactured by DS Pharma Animal Health Co., Ltd.) (introduced anesthesia: 4%, continuous anesthesia: 1.5 to 2.5%).” left out, “The arteriovenous shunt was prepared by connecting Atom extension tubes (4Fr) having lengths of 15 cm and 13 cm to the artery side and the vein side, respectively, of a polyethylene tube (length: 60 cm, outside diameter: 11.1 mm, inside diameter: 7.9 mm).” left out, “[…] STA calcium chloride (manufactured by Roche Diagnostics K.K.) was added in” for “Further,”, “amount equal thereto,” for “existing anticoagulant dabigatran (antithrombin drug)”, “the time required for coagulation was measured.” for “rivaroxaban (FXa inhibitor) were tested as control drugs.”

[5] = dose 0.03 + 0.045 mg/kg + mg/kg/h
[6] = dose 0.1 + 0.15 mg/kg + mg/kg/h
[7] = dose 0.3 + 0.45 mg/kg + mg/kg/h
[8] = dose 0.03 + 0.045 mg/kg + mg/kg/h i.v.
[9] = dose 0.1 + 0.15 mg/kg + mg/kg/h i.v.
[10] = dose 0.3 + 0.45 mg/kg + mg/kg/h i.v.

Human FXIa, sequence (P03951 388-625 limits assumed): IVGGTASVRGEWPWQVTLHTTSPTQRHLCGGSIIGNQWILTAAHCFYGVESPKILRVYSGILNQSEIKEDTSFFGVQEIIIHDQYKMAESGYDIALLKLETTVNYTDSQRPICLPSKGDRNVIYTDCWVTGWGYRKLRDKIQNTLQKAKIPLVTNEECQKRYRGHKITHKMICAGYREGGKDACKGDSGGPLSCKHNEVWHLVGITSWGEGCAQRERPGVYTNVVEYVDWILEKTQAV
Human FXIa, sequence (P03951 19-387 partner limits assumed): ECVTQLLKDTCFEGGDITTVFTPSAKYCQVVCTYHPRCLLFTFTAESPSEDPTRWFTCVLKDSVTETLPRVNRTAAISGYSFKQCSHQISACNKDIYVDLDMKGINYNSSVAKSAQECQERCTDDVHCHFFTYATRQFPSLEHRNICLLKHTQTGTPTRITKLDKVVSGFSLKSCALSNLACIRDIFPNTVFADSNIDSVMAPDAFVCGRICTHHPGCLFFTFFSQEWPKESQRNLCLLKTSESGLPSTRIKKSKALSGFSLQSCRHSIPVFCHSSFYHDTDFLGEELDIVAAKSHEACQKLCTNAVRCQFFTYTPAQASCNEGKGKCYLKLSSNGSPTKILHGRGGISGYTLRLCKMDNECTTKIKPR

- IC50 (Human FXIa): 34 nM
SMILES: N[C@H](CF)[C@H]1CC[C@H](C(=O)N2CC[C@@H](C3CCCCC3)[C@H]2C(=O)Nc2ccc3[nH]c(C(=O)O)nc3c2)CC1

- IC50 (Human FXIa): 15 nM
SMILES: N[C@H](CF)[C@H]1CC[C@H](C(=O)N2CC[C@@H](c3ccccc3)[C@H]2C(=O)Nc2ccc3[nH]c(C(=O)O)cc3c2)CC1

- IC50 (Human FXIa): 20 nM
SMILES: N[C@H](CF)[C@H]1CC[C@H](C(=O)N2CC[C@H](c3ccccc3)[C@H]2C(=O)Nc2ccc3[nH]c(C(=O)O)cc3c2)CC1

- Bleeding time [2, 8]: 1614 ± 869 s
- Bleeding time [2, 9]: 2445 ± 964 s
- Bleeding time (fold-increase) [2, 8]: 2.8 ± 1.5 fold-increase
- Bleeding time (fold-increase) [2, 9]: 4.2 ± 1.7 fold-increase
- Bleeding time [3, 8]: 1031 ± 319 s
- Bleeding time [3, 9]: 1369 ± 334 s
- Bleeding time [3, 10]: 1733 ± 110 s
- Bleeding time (fold-increase) [3, 8]: 2.3 ± 0.7 fold-increase
- Bleeding time (fold-increase) [3, 9]: 3.0 ± 0.7 fold-increase
- Bleeding time (fold-increase) [3, 10]: 3.8 ± 0.2 fold-increase
SMILES: O=C(NC[C@H]1CN(c2ccc(N3CCOCC3=O)cc2)C(=O)O1)c1ccc(Cl)s1 [Rivaroxaban]
- PT (ratio) [1, 5]: 1.23 ± 0.05 ratio
- Thrombus weight [1, 5]: 92 ± 19 mg
- aPTT (ratio) [1, 5]: 1.22 ± 0.06 ratio
- PT (ratio) [1, 6]: 1.73 ± 0.15 ratio
- Thrombus weight [1, 6]: 58 ± 9 mg
- aPTT (ratio) [1, 6]: 1.50 ± 0.09 ratio
- PT (ratio) [1, 7]: 2.87 ± 0.33 ratio
- Thrombus weight [1, 7]: 29 ± 10 mg
- aPTT (ratio) [1, 7]: 1.87 ± 0.14 ratio
- PT (ratio) [4, 8]: 1.23 ± 0.05 ratio
- Thrombus weight [4, 8]: 92 ± 19 mg
- aPTT (ratio) [4, 8]: 1.22 ± 0.06 ratio
- PT (ratio) [4, 9]: 1.73 ± 0.15 ratio
- Thrombus weight [4, 9]: 58 ± 9 mg
- aPTT (ratio) [4, 9]: 1.50 ± 0.09 ratio
